We go through 14 compounds from PubChem BioAssay AID330 (DTP/NCI, 2004).

The test relates to P388 leukemia ip, CD2F1 mice, survival T/C. Kind of test: NCI In Vivo Anticancer Drug Screen. Data for tumor model P388 Leukemia (intraperitoneal) in CD2F1 (CDF1) mice. As to conditions: endpoint: median survival time, higher = longer survival. Put shortly:
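Mice carrying the transplanted tumor received test compound or vehicle. Survival was recorded in each group, and the value is the treated-group measurement divided by that of the vehicle-treated control group.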

Setting [1] is: dose: 50.0 mg/kg/injection, schedule: Q01DX005 (ip), vehicle: saline with Tween-80.
The mark [2] stands for this setting: dose: 100.0 mg/kg/injection, schedule: Q01DX005 (ip), vehicle: saline with Tween-80.
Setting [3] is: dose: 200.0 mg/kg/injection, schedule: Q01DX005 (ip), vehicle: saline with Tween-80.
Where [4] appears, read: dose: 15.0 mg/kg/injection, schedule: Q01DX005 (ip), vehicle: saline with Tween-80.
[5] abbreviates: dose: 30.0 mg/kg/injection, schedule: Q01DX005 (ip), vehicle: saline with Tween-80.
Setting [6] is: dose: 12.5 mg/kg/injection, schedule: Q01DX009 (ip), vehicle: saline.
The mark [7] stands for this setting: dose: 25.0 mg/kg/injection, schedule: Q01DX009 (ip), vehicle: saline.
Where [8] appears, read: dose: 100.0 mg/kg/injection, schedule: Q01DX009 (ip), vehicle: saline.
Where [9] appears, read: dose: 50.0 mg/kg/injection, schedule: Q01DX009 (ip), vehicle: saline with Tween-80.

Several values for one entry are separate records, joined by “and”; a condition that tells them apart may be missing. Equal values may be shown once. Toxic doses and inconclusive results are not listed. Peptide text beside a SMILES is read from it. * marks the point of attachment. Cbz = O=C(OCc1ccccc1)*; OtBu = CC(C)(C)O*

Take `CC(C)(C)OC(=O)CCC(NC(=O)C(CCC(=O)OC(C)(C)C)NC(=O)C(CCC(=O)OC(C)(C)C)NC(=O)OCc1ccccc1)C(=O)O` (stereo not given) (Cbz-Glu(OtBu)-Glu(OtBu)-Glu(OtBu)-OH; configuration not given here): the T/C is 104 % of control under setting [1], 100 % of control under setting [2] and 96 % of control under setting [3].

Consider `Cc1cc(-c2ccccc2)c(C)c(-c2ccccc2)c1-c1ccccc1`, for which the T/C was 99 % of control (dose: 100.0 mg/kg/injection, schedule: Q04DX002 (ip), vehicle: saline with Tween-80); 101 % of control (dose: 200.0 mg/kg/injection, schedule: Q04DX002 (ip), vehicle: saline with Tween-80); 96 % of control (dose: 400.0 mg/kg/injection, schedule: Q04DX002 (ip), vehicle: saline with Tween-80).

Take `C/C(=N\N1CN(C(C)C(=O)O)P(Nc2ncn[nH]2)N=C1N)c1cccs1` (stereo not given): the T/C was 96 % of control (dose: 7.5 mg/kg/injection, schedule: Q01DX005 (ip), vehicle: saline with Tween-80); 103 % of control under setting [4]; 106 % of control under setting [5].

Take `NCCNC[Si](c1ccccc1)(c1ccccc1)c1ccccc1`: the T/C is 102 % of control under setting [4] and 102 % of control under setting [5].

Regarding `CCC(=O)NC(C)C(=O)O` (stereo not given), the T/C is 100 % of control (dose: 6.25 mg/kg/injection, schedule: Q01DX009 (ip), vehicle: saline); 88 % of control under setting [6]; 88 % of control under setting [7]; 94 % of control under setting [8]; 97 % of control (dose: 200.0 mg/kg/injection, schedule: Q01DX009 (ip), vehicle: saline).

Take `O=C(O)C1CCCN1C(=O)c1ccc(Cl)cc1` (stereo not given): the T/C is 99 % of control (dose: 12.5 mg/kg/injection, schedule: Q01DX005 (ip), vehicle: distilled water + Tween-80); 101 % of control (dose: 25.0 mg/kg/injection, schedule: Q01DX005 (ip), vehicle: distilled water + Tween-80); 97 % of control (dose: 50.0 mg/kg/injection, schedule: Q01DX005 (ip), vehicle: distilled water + Tween-80); 100 % of control (dose: 100.0 mg/kg/injection, schedule: Q01DX005 (ip), vehicle: distilled water + Tween-80); 104 % of control (dose: 200.0 mg/kg/injection, schedule: Q01DX005 (ip), vehicle: distilled water + Tween-80).

On to `C[C@@H](CN1CC(=O)NC(=O)C1)N1CC(=O)NC(=O)C1`, for which the T/C was 108 % of control (dose: 0.06 mg/kg/injection, schedule: Q01DX009 (ip), vehicle: Klucel (hydroxypropylcellulose) (HPC)); 101 % of control (dose: 0.12 mg/kg/injection, schedule: Q01DX009 (ip), vehicle: Klucel (hydroxypropylcellulose) (HPC)); 111 % of control (dose: 0.25 mg/kg/injection, schedule: Q01DX009 (ip), vehicle: Klucel (hydroxypropylcellulose) (HPC)); 115 % of control (dose: 0.5 mg/kg/injection, schedule: Q01DX009 (ip), vehicle: Klucel (hydroxypropylcellulose) (HPC)); 121 % of control (dose: 1.0 mg/kg/injection, schedule: Q01DX009 (ip), vehicle: Klucel (hydroxypropylcellulose) (HPC)); 154 % of control (dose: 4.0 mg/kg/injection, schedule: Q01DX009 (ip), vehicle: Klucel (hydroxypropylcellulose) (HPC)). The T/C was 159 % of control (dose: 8.0 mg/kg/injection, schedule: Q01DX009 (ip), vehicle: Klucel (hydroxypropylcellulose) (HPC)); 117 % of control (dose: 16.0 mg/kg/injection, schedule: Q01DX005 (iv), vehicle: suspension in saline); 187 % of control (dose: 16.0 mg/kg/injection, schedule: Q01DX009 (ip), vehicle: Klucel (hydroxypropylcellulose) (HPC)); 178 % of control (dose: 25.0 mg/kg/injection, schedule: Q01DX009 (ip), vehicle: Klucel (hydroxypropylcellulose) (HPC)); 119 % of control (dose: 32.0 mg/kg/injection, schedule: Q01DX005 (iv), vehicle: suspension in saline); 218 % of control (dose: 32.0 mg/kg/injection, schedule: Q01DX009 (ip), vehicle: Klucel (hydroxypropylcellulose) (HPC)). Besides, the T/C is, setting by setting: (dose: 50.0 mg/kg/injection, schedule: Q01DX009 (ip), vehicle: Klucel (hydroxypropylcellulose) (HPC)) 166 % of control and 221 % of control; (dose: 64.0 mg/kg/injection, schedule: Q01DX009 (ip), vehicle: Klucel (hydroxypropylcellulose) (HPC)) 218 % of control; (dose: 100.0 mg/kg/injection, schedule: Q01DX009 (ip), vehicle: Klucel (hydroxypropylcellulose) (HPC)) 200 % of control; (dose: 128.0 mg/kg/injection, schedule: Q01DX005 (ip), vehicle: suspension in saline) 161 % of control and 177 % of control; (dose: 128.0 mg/kg/injection, schedule: Q01DX009 (ip), vehicle: Klucel (hydroxypropylcellulose) (HPC)) 229 % of control; (dose: 200.0 mg/kg/injection, schedule: Q01DX009 (ip), vehicle: Klucel (hydroxypropylcellulose) (HPC)) 113 % of control and 92 % of control. Further, the T/C (dose: 256.0 mg/kg/injection, schedule: Q01DX001 (ip), vehicle: Klucel (hydroxypropylcellulose) (HPC)) was 97 % of control; the T/C (dose: 256.0 mg/kg/injection, schedule: Q01DX005 (ip), vehicle: suspension in saline) was 194 % of control and 208 % of control; the T/C (dose: 256.0 mg/kg/injection, schedule: Q01DX005 (iv), vehicle: suspension in saline) was 171 % of control and 180 % of control; the T/C (dose: 400.0 mg/kg/injection, schedule: Q01DX009 (ip), vehicle: Klucel (hydroxypropylcellulose) (HPC)) was 92 % of control; the T/C (dose: 512.0 mg/kg/injection, schedule: Q01DX001 (ip), vehicle: Klucel (hydroxypropylcellulose) (HPC)) is 122 % of control; the T/C (dose: 512.0 mg/kg/injection, schedule: Q01DX005 (ip), vehicle: suspension in saline) is 177 % of control. Moreover, the T/C is, setting by setting: (dose: 512.0 mg/kg/injection, schedule: Q01DX005 (iv), vehicle: suspension in saline) 171 % of control; (dose: 600.0 mg/kg/injection, schedule: Q04DX003 (ip), vehicle: saline) 205 % of control; (dose: 2048.0 mg/kg/injection, schedule: Q01DX001 (ip), vehicle: Klucel (hydroxypropylcellulose) (HPC)) 159 % of control.

Take `CCCCCCCCCCCC(=O)NN`: the T/C under setting [9] was 95 % of control; the T/C (dose: 100.0 mg/kg/injection, schedule: Q04DX003 (ip), vehicle: saline with Tween-80) was 100 % of control; the T/C (dose: 200.0 mg/kg/injection, schedule: Q04DX003 (ip), vehicle: saline with Tween-80) was 100 % of control.

Consider `O=[N+]([O-])c1ccc(N2c3ccccc3SC2c2ccco2)c([N+](=O)[O-])c1` (stereo not given), for which the T/C (dose: 1.5 mg/kg/injection, schedule: Q01DX005 (ip), vehicle: saline with Tween-80) is 102 % of control; the T/C (dose: 3.0 mg/kg/injection, schedule: Q01DX005 (ip), vehicle: saline with Tween-80) was 102 % of control; the T/C (dose: 6.0 mg/kg/injection, schedule: Q01DX005 (ip), vehicle: saline with Tween-80) is 91 % of control.

`[N-]=[N+]=NC(=O)Nc1cccc(C(F)(F)F)c1`: the T/C was 103 % of control (dose: 15.0 mg/kg/injection, schedule: Q01DX005 (ip), vehicle: Klucel + Tween-80); 96 % of control (dose: 30.0 mg/kg/injection, schedule: Q01DX005 (ip), vehicle: Klucel + Tween-80); 100 % of control and 93 % of control (dose: 60.0 mg/kg/injection, schedule: Q01DX005 (ip), vehicle: Klucel + Tween-80).

For `Oc1ccc2ccccc2c1/C=C/c1ccc2c(Br)cc(Br)c(O)c2n1`, the T/C under setting [1] was 99 % of control, the T/C under setting [2] is 106 % of control and the T/C under setting [3] was 88 % of control.

As for `O=c1[nH]c(-c2cccc(-c3nnc(-c4ccccc4Cl)c(=O)[nH]3)c2)nnc1-c1ccccc1Cl`, the T/C (dose: 100.0 mg/kg/injection, schedule: Q04DX002 (ip), vehicle: Klucel (hydroxypropylcellulose) (HPC)) was 100 % of control; the T/C (dose: 200.0 mg/kg/injection, schedule: Q04DX002 (ip), vehicle: Klucel (hydroxypropylcellulose) (HPC)) was 100 % of control; the T/C (dose: 400.0 mg/kg/injection, schedule: Q04DX002 (ip), vehicle: Klucel (hydroxypropylcellulose) (HPC)) was 96 % of control.

On to `Oc1ccc(CCl)c2cccnc12`, for which the T/C is 98 % of control under setting [6], 101 % of control under setting [7] and 150 % of control under setting [8].

As for `O=C1c2ccccc2C(O)(C#Cc2ccccc2)c2c1oc1c2ccc2ccccc21` (stereo not given), the T/C is, setting by setting: (dose: 12.5 mg/kg/injection, schedule: Q01DX009 (ip), vehicle: saline with Tween-80) 97 % of control; (dose: 25.0 mg/kg/injection, schedule: Q01DX009 (ip), vehicle: saline with Tween-80) 92 % of control; under setting [9], 90 % of control; (dose: 100.0 mg/kg/injection, schedule: Q01DX009 (ip), vehicle: saline with Tween-80) 108 % of control.
